# Laboratory results as given in article PMC10110893, “[…]-derived synthetic cannabinoids inhibit T-type calcium channels with divergent effects on seizures in rodent models of epilepsy” (Frontiers in Physiology, 2023).
# Like-named read-outs stand apart in the source and are kept apart here.
# Experiments:
# human Cav3.3 = target: T1, human Cav3.3 (Homo sapiens, UniProt Q9P0X4); experiment: FLIPR calcium flux assay, Cav3.3; assay type: cell-based
# T1 construct: expressed in transfected cells; host or cells: HEK293 FlpIn T-Rex cells (Invitrogen)
# T1 sequence (Q9P0X4 whole entry): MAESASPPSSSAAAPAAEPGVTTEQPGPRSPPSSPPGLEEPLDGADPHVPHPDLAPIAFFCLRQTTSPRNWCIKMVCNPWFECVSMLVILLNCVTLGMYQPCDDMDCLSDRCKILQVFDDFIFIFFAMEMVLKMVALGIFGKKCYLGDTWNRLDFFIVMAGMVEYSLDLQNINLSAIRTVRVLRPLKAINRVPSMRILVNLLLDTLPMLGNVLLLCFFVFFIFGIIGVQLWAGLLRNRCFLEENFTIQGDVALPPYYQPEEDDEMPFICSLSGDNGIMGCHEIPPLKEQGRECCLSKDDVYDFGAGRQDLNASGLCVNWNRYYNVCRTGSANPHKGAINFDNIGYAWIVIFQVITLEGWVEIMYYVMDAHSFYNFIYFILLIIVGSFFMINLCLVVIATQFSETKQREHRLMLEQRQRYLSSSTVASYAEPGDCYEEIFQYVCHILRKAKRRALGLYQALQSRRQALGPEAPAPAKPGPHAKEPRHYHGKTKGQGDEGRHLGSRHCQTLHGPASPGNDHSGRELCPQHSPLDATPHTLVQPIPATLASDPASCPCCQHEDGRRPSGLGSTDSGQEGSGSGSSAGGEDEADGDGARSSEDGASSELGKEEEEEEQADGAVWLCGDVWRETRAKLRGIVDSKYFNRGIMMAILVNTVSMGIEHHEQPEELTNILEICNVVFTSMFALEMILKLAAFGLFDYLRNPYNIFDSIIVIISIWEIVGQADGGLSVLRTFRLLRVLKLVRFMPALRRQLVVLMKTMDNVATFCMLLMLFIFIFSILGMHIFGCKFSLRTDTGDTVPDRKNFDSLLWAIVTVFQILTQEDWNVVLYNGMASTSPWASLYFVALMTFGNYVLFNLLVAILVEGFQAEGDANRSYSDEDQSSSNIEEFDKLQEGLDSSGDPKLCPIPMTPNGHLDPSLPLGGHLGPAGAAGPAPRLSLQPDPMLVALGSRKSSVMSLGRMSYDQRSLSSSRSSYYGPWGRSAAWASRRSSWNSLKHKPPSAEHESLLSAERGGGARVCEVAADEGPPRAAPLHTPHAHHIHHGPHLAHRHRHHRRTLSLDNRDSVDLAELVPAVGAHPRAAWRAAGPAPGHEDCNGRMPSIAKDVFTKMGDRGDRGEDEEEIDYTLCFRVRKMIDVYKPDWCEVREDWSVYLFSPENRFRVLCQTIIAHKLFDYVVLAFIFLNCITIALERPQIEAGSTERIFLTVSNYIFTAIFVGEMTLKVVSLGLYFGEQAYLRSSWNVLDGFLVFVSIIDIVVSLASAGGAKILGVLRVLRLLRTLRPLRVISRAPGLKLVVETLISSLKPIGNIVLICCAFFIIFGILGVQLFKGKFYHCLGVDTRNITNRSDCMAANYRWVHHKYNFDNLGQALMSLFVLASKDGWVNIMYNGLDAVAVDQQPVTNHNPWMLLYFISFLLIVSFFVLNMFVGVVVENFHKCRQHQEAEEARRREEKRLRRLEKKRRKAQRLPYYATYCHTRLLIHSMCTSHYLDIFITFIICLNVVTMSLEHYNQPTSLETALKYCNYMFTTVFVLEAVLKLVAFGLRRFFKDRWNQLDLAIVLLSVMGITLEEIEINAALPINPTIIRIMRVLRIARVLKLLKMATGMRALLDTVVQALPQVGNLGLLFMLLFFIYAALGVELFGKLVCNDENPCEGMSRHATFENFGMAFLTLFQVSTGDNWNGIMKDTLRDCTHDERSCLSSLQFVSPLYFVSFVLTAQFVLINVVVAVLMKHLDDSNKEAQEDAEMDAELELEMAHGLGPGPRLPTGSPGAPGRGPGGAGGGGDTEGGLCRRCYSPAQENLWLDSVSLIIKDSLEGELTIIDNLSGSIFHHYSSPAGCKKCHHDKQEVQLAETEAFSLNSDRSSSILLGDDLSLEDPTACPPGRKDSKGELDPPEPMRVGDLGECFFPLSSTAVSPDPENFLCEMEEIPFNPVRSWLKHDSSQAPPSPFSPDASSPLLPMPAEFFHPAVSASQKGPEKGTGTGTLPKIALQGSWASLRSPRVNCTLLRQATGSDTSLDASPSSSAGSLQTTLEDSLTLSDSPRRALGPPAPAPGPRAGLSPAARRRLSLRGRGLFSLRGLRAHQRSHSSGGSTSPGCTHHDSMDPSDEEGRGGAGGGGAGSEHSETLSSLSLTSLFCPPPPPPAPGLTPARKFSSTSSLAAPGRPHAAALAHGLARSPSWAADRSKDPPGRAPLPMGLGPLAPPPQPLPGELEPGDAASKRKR
# Experimental: (§1) HEK293 FlpIn T-Rex cells (Invitrogen, CA, United States) stably expressing human Cav3.1, Cav3.2, or Cav3.3 were maintained in Dulbecco’s Modified Eagle Medium (DMEM) supplemented with 10% foetal bovine serum (FBS), 1% penicillin-streptomycin (P/S) at 37°C, and 5% CO2 as previously described ([Bladen et al., 2021]; [Udoh et al., 2022]). Hygromycin (80 μg/mL) and blasticidin (15 μg/mL) were used as selection antibiotics and cells were passaged at 80% confluency. For experiments, cells were resuspended in Leibovitz’s L-15 media (containing 1% FBS, 1% P/S, 15 mM glucose, 2 μg/mL tetracycline), plated in black, clear-bottomed poly-D-lysine-coated 96-well plates (90 μL) (Corning, NY, United States), and incubated overnight in ambient air at 37°C. All compounds tested in cellular assays were prepared as stock solutions in DMSO and final DMSO concentration was 0.1%.
# (§2) Intracellular calcium flux was measured using a fluorometric imaging plate-reader (FLIPR) Calcium 5 Assay Kit and FlexStation 3 Microplate Reader (Molecular Devices, San Jose, United States). Calcium 5 dye (90 μL) prepared in low potassium HBSS (Thermo Fisher Scientific) containing (in mM) 145 NaCl, 22 HEPES, 0.338 Na2HPO4, 4.17 NaHCO3, 0.441 KH2PO4, 0.407 MgSO4, 0.493 MgCl2, 1.26 CaCl2, 5.56 glucose, and […] with pH 7.4 was applied to each well and incubated for 1 h at 37°C, ambient air prior to testing.
# (§3) Fluorescence readings were taken at 2 s intervals (λ excitation = 485 nm, λ emission = 525 nm). Following 2 min baseline reading, 20 μL of SB2193, SB2193F, or NNC 55-0396 (10 nM—10 μM) was added to cells and read for 5 min, then CaCl2 (10 mM) was added and read for 3 min. Baseline fluorescence averaged over the 20 s interval preceding CaCl2 addition was subtracted and normalized to the vehicle response. Changes in fluorescence were measured in relative fluorescence units (RFU). All compounds were assayed in ≥ five independent experiments (n = 5–8) performed in duplicate. Order of compound addition and location on the plate were varied between replicates. Data was fit to a four-parameter non-linear dose-response curve using GraphPad Prism 8.2.0 software (La Jolla, United States) to determine IC50 values.
# human Cav3.1 = target: T2, human Cav3.1 (Homo sapiens, UniProt O43497); experiment: FLIPR calcium flux assay, Cav3.1; assay type: cell-based
# T2 construct: expressed in transfected cells; host or cells: HEK293 FlpIn T-Rex cells (Invitrogen)
# T2 sequence (O43497 whole entry): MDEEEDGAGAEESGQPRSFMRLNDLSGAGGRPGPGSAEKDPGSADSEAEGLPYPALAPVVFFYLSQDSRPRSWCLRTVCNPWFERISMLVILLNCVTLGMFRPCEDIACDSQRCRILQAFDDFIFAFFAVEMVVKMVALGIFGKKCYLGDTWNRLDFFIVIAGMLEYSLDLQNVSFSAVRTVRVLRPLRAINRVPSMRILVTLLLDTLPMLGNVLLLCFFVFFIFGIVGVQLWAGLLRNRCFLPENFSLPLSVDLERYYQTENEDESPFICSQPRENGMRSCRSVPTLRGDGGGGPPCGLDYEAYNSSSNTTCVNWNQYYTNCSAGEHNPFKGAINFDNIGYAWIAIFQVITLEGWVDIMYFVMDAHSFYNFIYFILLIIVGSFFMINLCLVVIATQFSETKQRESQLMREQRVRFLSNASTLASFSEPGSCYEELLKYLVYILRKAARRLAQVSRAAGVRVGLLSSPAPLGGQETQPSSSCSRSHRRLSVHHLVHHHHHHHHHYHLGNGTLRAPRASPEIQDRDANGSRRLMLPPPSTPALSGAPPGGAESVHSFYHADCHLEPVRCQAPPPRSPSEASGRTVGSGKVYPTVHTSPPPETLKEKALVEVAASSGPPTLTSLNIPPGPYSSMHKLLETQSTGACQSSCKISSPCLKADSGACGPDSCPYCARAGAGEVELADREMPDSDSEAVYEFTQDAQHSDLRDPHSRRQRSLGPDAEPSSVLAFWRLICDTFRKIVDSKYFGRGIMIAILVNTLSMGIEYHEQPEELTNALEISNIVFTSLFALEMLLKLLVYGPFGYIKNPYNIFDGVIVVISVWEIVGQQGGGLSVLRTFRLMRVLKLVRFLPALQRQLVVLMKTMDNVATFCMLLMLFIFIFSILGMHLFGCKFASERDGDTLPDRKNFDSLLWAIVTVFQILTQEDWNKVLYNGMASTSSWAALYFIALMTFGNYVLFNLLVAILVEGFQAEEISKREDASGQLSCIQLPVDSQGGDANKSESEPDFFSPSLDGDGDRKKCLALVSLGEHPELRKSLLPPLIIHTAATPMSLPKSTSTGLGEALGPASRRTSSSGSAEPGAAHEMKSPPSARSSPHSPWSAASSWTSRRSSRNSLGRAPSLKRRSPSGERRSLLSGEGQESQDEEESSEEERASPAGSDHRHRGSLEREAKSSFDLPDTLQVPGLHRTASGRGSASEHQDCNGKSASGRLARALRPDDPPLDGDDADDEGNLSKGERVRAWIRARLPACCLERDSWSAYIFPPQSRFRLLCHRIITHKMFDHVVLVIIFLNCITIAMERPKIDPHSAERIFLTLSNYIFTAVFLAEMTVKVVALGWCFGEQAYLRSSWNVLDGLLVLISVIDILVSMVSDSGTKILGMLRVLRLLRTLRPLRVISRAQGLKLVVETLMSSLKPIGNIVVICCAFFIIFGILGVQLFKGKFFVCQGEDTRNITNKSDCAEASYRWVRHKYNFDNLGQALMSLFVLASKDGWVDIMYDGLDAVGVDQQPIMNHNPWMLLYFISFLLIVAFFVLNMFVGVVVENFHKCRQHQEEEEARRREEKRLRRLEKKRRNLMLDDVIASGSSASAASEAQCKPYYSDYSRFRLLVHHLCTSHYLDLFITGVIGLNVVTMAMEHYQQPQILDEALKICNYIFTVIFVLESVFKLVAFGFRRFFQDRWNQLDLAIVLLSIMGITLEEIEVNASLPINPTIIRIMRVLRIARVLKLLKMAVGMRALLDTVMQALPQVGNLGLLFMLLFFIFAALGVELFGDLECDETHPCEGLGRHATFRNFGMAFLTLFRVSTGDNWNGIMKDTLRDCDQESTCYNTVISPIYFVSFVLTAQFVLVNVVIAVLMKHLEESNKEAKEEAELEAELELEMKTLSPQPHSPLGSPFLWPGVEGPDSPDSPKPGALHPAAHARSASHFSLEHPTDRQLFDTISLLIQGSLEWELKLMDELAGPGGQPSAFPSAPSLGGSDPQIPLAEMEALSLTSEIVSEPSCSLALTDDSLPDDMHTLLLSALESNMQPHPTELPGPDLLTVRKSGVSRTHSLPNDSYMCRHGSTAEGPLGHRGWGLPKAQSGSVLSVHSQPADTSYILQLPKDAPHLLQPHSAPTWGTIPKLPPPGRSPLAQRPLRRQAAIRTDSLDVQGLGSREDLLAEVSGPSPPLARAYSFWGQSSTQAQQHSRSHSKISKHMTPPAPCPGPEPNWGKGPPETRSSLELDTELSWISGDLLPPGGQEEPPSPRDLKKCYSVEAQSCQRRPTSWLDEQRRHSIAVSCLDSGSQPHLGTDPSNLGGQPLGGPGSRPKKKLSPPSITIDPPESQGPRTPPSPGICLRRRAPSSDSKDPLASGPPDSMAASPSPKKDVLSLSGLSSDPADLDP
# Experimental: as §1, §2, §3
# [1] = Pharmacokinetics in mouse plasma and brain after single i.p. injection; assay type: in vivo; conditions: both sexes, 10 mg/kg i.p.; for Tmax / half-life / Cmax: wildtype F1, ip; for AUC: wildtype F1, mouse, 10 mg/kg
# Experimental: SB2193 and SB2193F were prepared in ethanol-Tween 80%–0.9% saline (1:1:18 ratio) and valproic acid in 0.9% saline. All doses were completely soluble in this vehicle except for the 100 mg/kg SB2193 dose, which was a suspension.
# Male and female wildtype F1 mice aged 21–28 days postnatal received a single i. p. injection of 10 mg/kg SB2193 or SB2193F. At selected timepoints (15–240 min), mice were anesthetised with isoflurane, blood was collected via cardiac puncture and whole brains were harvested. Brains were snap frozen on dry ice, and blood plasma was isolated via centrifugation (4,000 g for 10 min, 4^○C). Brain and plasma samples were stored at −80°C until assayed.
# Plasma samples (50 μL) were spiked with an internal standard (diazepam) and vortexed with 1 M NaOH (50 μL) and methyl tert-butyl ether (1 mL) to achieve protein precipitation. The organic layer was isolated by centrifugation (4,000 g for 3 min) before being frozen for 60 min at −80°C, evaporated to dryness using N2, and reconstituted in 30% acetonitrile and 0.1% formic acid in water for analysis. Brain hemispheres were homogenised in a 10x w/v 1:1 methanol-water solution using a Biospec Tissue-Tearor (Bartlesville, United States) and centrifuged at 20,000 g for 30 min at 4°C. Supernatant (100 μL) was collected and prepared following the same method as plasma.
# SB2193 and SB2193F concentrations in brain and plasma samples were assessed by high performance liquid chromatography-tandem mass spectrometry (HPLC-MS/MS) using a Shimadzu Nexera liquid chromatograph coupled with a Shimadzu 8,030 triple quadrupole mass spectrometer (Kyoto, Japan). Samples were run through a Zorbax C18 HPLC Column equipped with a Zorbax Eclipse XDB-C8 guard column (2.1 × 50 mm, 3.5 μm particle size; Agilent, Santa Clara, United States) with an injection volume of 10 μL using a gradient elution. Mobile phases of acetonitrile and 0.1% formic acid in water were delivered at a flow rate of 0.6 mL/min over 4.16 min, with a stepwise adjustment of mobile phase concentration gradient over time to optimise ion separation.
# Quantification was achieved by comparing experimental samples to plasma and brain standards prepared with known concentrations of SB2193 or SB2193F. Samples were quantified against a 7-point standard curve (R ^2 > 0.98 for both analytes).
# Concentrations of SB2193 or SB2193F in plasma and brain at each timepoint were averaged and concentration-time curves were generated using GraphPad Prism. Pharmacokinetic parameters were calculated using non-compartmental analysis. The linear-log trapezoidal method was used to calculate drug exposure (area under the curve, AUC) using equations previously described ([Hawkins et al., 2017]).
# [2] = tested on: cannabinoid CB1 receptors; parameters: method as in Kevin et al., 2022; conditions: ref Kevin et al., 2022; cited from earlier work
# T-type channels = tested on: T-type channels; parameters: method as in Kevin et al., 2022; conditions: single 10 μM concentration, FLIPR calcium flux and whole-cell patch clamp, ref Kevin et al., 2022; cited from earlier work
# human Cav3.2 = target: T3, human Cav3.2 (Homo sapiens, UniProt O95180); experiment: FLIPR calcium flux assay, Cav3.2; assay type: cell-based
# T3 construct: expressed in transfected cells; host or cells: HEK293 FlpIn T-Rex cells (Invitrogen)
# Experimental: Intracellular calcium flux was measured using a fluorometric imaging plate-reader (FLIPR) Calcium 5 Assay Kit and FlexStation 3 Microplate Reader (Molecular Devices, San Jose, United States). […]
# Fluorescence readings were taken at 2 s intervals (λ excitation = 485 nm, λ emission = 525 nm). […] Baseline fluorescence averaged over the 20 s interval preceding CaCl2 addition was subtracted and normalized to the vehicle response. Changes in fluorescence were measured in relative fluorescence units (RFU). […]
# [3] = tested on: 6 Hz-induced seizures in Swiss mice; parameters: method as in Barton et al., 2001; conditions: 6 Hz model, ref Barton et al., 2001; cited from earlier work
# [4] = tested on: 6 Hz-induced seizures in Swiss mice; experiment: 6 Hz seizure model in mice; assay type: in vivo, mouse; conditions: 300 mg/kg i.p., positive control, n = 10
# Experimental: Swiss outbred mice used in 6 Hz seizure experiments were purchased from Australian Resources Centre (stock ARC(S); Canning Vale, Australia) and single housed for 1 week prior to experimentation to prevent fighting.
# 6 Hz seizures were induced in Swiss male mice (9–10 weeks old) using an Ugo Basile electroconvulsive therapy unit (Model 57,800; Gemonio, Italy). Mice were pre-treated with vehicle, SB2193 (10 mg/kg, 30 mg/kg, 100 mg/kg) or valproic acid (300 mg/kg) via i.p. injection 15 min before seizure induction based on the time-to-peak brain concentration determined in pharmacokinetic studies. […] A drop of 0.5% tetracaine was applied to both corneas immediately following the i.p. injection to provide local anaesthesia. Immediately prior to the electrical stimulation, saline was applied to each cornea to ensure electrical conductivity. Corneal electroshocks were administered at 44 mA, 6 Hz, 3 s shock duration, with a […] rectangular pulse width. Mice were shocked and scored by an observer blinded to treatment for the presence of twitching of the vibrissae, stun, myoclonus, rearing, forelimb clonus, and/or Straub tail. […] The ED50 for SB2193 was calculated using computer-assisted log-probit linear regression analysis ([Litchfield and Wilcoxon, 1949]). A χ^2 test was performed to assess statistical significance.
# [5] = FLIPR calcium flux, HEK293 cells, n = 5–8
smiles,measurement,setting,value
"CC(C)[C@H]1c2ccc(F)cc2CC[C@@]1(CCN(C)CCCc1nc2ccccc2[nH]1)OC(=O)C1CC1 [NNC 55-036, reference compound]",Cav3.3 pIC50,human Cav3.3; [5],5.9 ± 0.06
same,IC50,"human Cav3.3; FLIPR calcium flux, HEK293 cells, n = 5–8, read-out: Cav3.3 IC50",1200 nM
same,Cav3.1 pIC50,human Cav3.1; [5],5.9 ± 0.06
same,IC50,"human Cav3.1; FLIPR calcium flux, HEK293 cells, n = 5–8, read-out: Cav3.1 IC50",1300 nM
CC(C)(C)OC(=O)N1CCN(C(=O)c2cn(CCCCCF)c3ccccc23)CC1 [SB2193F],Kp,"[1]; wildtype F1, brain/plasma, ip, mouse, read-out: brain-plasma ratio",0.48
same,Tmax,[1]; mouse brain,≤ 15 min
same,half-life,[1]; mouse brain,14 min
same,Cmax,"[1]; mouse brain, read-out: Cmax",2300 ± 300 nM
same,Cmax,"[1]; mouse brain, read-out: Cmax (μg/mL)",0.97 ± 0.1 µg/mL
same,Tmax,[1]; mouse plasma,≤ 15 min
same,half-life,[1]; mouse plasma,23 min
same,Cmax,"[1]; mouse plasma, read-out: Cmax",3100 ± 700 nM
same,Cmax,"[1]; mouse plasma, read-out: Cmax (μg/mL)",1.3 ± 0.3 µg/mL
same,AUC,"[1]; brain, ip, mouse brain, brain concentration converted assuming density of 1 g/mL",350 ng·h/mL
same,AUC,"[1]; plasma, ip, mouse plasma",733 ng·h/mL
same,activity at cannabinoid CB1 receptors,[2],minimal activity
same,IC50,human Cav3.3,8600 nM
same,inhibition of T-type channels,T-type channels,strongly inhibit
same,IC50,human Cav3.1,2300 nM
same,IC50,human Cav3.2,3160 nM
CCC1(C)CC(=O)NC1=O (centres unmarked) [ethosuximide],ED50,[3],> 600 mg/kg
CCCCCn1cc(C(=O)N2CCN(C)CC2)c2ccccc21 [reference compound],activity at cannabinoid CB1 receptors,[2],minimal activity
"CCCC(CCC)C(=O)O [valproic acid, reference compound]",protection from seizures compared to vehicle,[4],significant protection
